From US11008290B2, “Halogenated quinoline derivatives as antimicrobial agents” (University of Florida Research Foundation, Incorporated, priority 2015, dated 2021)
Values after ≈ are worked out from the molar mass of the structure shown. Read-outs that look alike come from different tables or passages of the source.

Tests used:
[1] = tested on: methicillin-resistant Staphylococcus aureus-2 (MRSA-2; clinical isolate); experiment: Minimum inhibitory concentration (MIC) susceptibility assay, broth microdilution; type: cell-based
Protocol: (§1) The minimum inhibitory concentration (MIC) for each compound was determined by the broth microdilution method as recommended by the Clinical and Laboratory Standards Institute (CLSI). In a 96-well plate, eleven two-fold serial dilutions of each compound were made in a final volume of 100 μL Luria Broth. Each well was inoculated with ˜10^5 bacterial cells at the initial time of incubation, prepared from a fresh log phase culture (OD600 of 0.5 to 1.0 depending on bacterial strain). […] The concentration range tested for each compound during this study was 0.10 to 100 μM. DMSO served as the vehicle and negative control in each microdilution MIC assay. DMSO was serially diluted with a top concentration of 1% v/v. Bacterial strains used: methicillin-resistant Staphylococcus aureus-2 (MRSA-2; clinical isolate from Shands Hospital in Gainesville, Fla.), methicillin-resistant Staphylococcus epidermidis (MRSE; ATCC 35984), vancomycin-resistant Enterococcus faecium (VRE, ATCC 700221).

[2] = tested on: methicillin-resistant Staphylococcus epidermidis (MRSE; ATCC 35984); experiment: as above; type: cell-based; conditions: read-out: MRSE MIC
Protocol: as §1

[3] = tested on: vancomycin-resistant Enterococcus faecium (VRE, ATCC 700221); experiment: as above; type: cell-based; conditions: read-out: VRE MIC
Protocol: as §1

[4] = tested on: MRSA-2 planktonic cells and biofilms; experiment: Calgary Biofilm Device (CBD) MBC/MBEC determination; type: cell-based, Staphylococcus aureus; conditions: for MBC: Staphylococcus aureus, MRSA
Protocol: (§2) Biofilm eradication experiments were performed using the Calgary Biofilm Device to determine MBC/MBEC values for various compounds of interest (Innovotech, product code: 19111). The Calgary device (96-well plate with lid containing 96 total pegs to establish biofilms; 1 peg/well) was inoculated with 125 μL of a mid-log phase culture diluted 1,000-fold in tryptic soy broth with 0.5% glucose (TSBG) to establish bacterial biofilms after incubation at 37° C. for 24 hours. The lid of the Calgary device was then removed, washed and transferred to another 96-well plate containing 2-fold serial dilutions of the test compounds (the “challenge plate”). The total volume of media with compound in each well in the challenge plate was 150 μL. The Calgary device was then incubated at 37° C. for 24 hours. The lid was then removed from the challenge plate and MBC/MBEC values were determined using different final assays. […] The MBC values were determined as the concentration giving a lack of visible bacterial growth (e.g., turbidity). For determination of MBEC values, the Calgary device lid (with attached pegs/treated biofilms) was transferred to a new 96-well plate containing 150 μL of fresh TSBG media in each well and incubated for 24 hours at 37° C. to allow viable biofilms to grow and disperse resulting in turbidity after the incubation period. […] In select experiments, treated pegs from the Calgary device were removed from lead biofilm eradicators after final incubation, sonicated for 30 minutes in PBS and plated out to determine biofilm cell killing (e.g., colony forming unit per milliliter, CFU/mL).

[5] = tested on: MRSE (ATCC 35984) planktonic cells and biofilms; experiment: as above; type: cell-based, Staphylococcus epidermidis; conditions: for MBC: Staphylococcus epidermidis, planktonic killing, CBD, first value of cell
Protocol: as §2

[6] = tested on: VRE (ATCC 700221) planktonic cells and biofilms; experiment: as above; type: cell-based, Enterococcus faecium; conditions: Enterococcus
Protocol: as §2

human red blood cells = experiment: Hemolysis assay; type: cell-based
Protocol: Freshly drawn human red blood cells (hRBC with ethylenediaminetetraacetic acid (EDTA) as an anticoagulant) were washed with Tris-buffered saline (0.01M Tris-base, 0.155M sodium chloride (NaCl), pH 7.2) and centrifuged for 5 minutes at 3500 rpm. The washing was repeated three times with the buffer. In 96-well plate, the test compounds were added to the buffer. […] The plate was then incubated for 1 hour at 37° C. After incubation, the plate is centrifuged for 5 minutes at 3500 rpm. Then 80 μL of the supernatant were transferred to another 96-well plate and the Optical Density (OD) was read at 405 nm. […] The percent of hemolysis was calculated as (OD405 of the compound-OD405 DMSO)/(OD405 Triton X-OD405 buffer).

MRSA-2 = experiment: Mechanistic investigations with metal(II)-cations (MIC assay with 200 μM metal salt); type: cell-based, Staphylococcus aureus; conditions: for MIC: Staphylococcus aureus
Protocol: as §1

[7] = Staphylococcus, MRSA, Table 2, 2 to 6 independent experiments, read-out: MRSA-2 MIC
[8] = Staphylococcus epidermidis, 18 h, Table 2, ATCC 35984
[9] = Staphylococcus epidermidis, Table 2, ATCC 35984
[10] = Table 2, planktonic killing, CBD, first value of MBC/MBEC cell, read-out: MRSA-2 Clinical Isolate MBC
[11] = Table 2, read-out: MRSE ATCC 35984 MBC
[12] = Table 2, planktonic killing, CBD, first value of cell, read-out: VRE ATCC 700221 MBC
[13] = Table 3, planktonic killing, CBD, first value of MBC/MBEC cell, read-out: MRSA-2 MBC
[14] = Staphylococcus, MRSA, Table 3, at least three independent experiments, read-out: MRSA-2 MIC
[15] = Staphylococcus epidermidis, Table 3
[16] = Table 3, planktonic killing, CBD, first value of cell, footnote c = lowest concentration tested, read-out: VRE MBC
[17] = MRSA-2, change in antibacterial activity according to MIC values

MIC [1, 7] [µM] | MIC [2, 9] [µM] | MIC [1, 14] [µM] | MIC [2, 15] [µM] | MIC ([3]; Table 3) [µM] | Structure (SMILES) | MBC [4, 10] [µM] | MBC [5, 11] [µM] | MBC [4, 13] [µM] | MBC ([5]; Table 3, read-out: MRSE MBC) [µM] | MBC [6, 16] [µM] | % Haemolysis at 200 μM (human red blood cells; human, 1 h, pH 7.2) [%] | other results
1.56 (≈ 0.744 µg/mL) | 0.3 (≈ 0.143 µg/mL) | – | – | – | Oc1c(Br)cc(Br)c2ccc(CNc3cc(Cl)cc(Cl)c3)nc12 [HQ-5] | 62.5 (≈ 29.8 µg/mL) | 1.5 (≈ 0.715 µg/mL) | – | – | – | – | MIC [2, 8]: 0.15 to 0.3 µM (≈ 0.0715 to 0.143 µg/mL); MIC ([3]; 18 h, Table 2, ATCC 700221): 0.39 to 0.78 µM (≈ 0.186 to 0.372 µg/mL); MIC ([3]; Table 2, ATCC 700221): 0.39 µM (≈ 0.186 µg/mL); MBC [6, 12]: 2 µM (≈ 0.954 µg/mL)
1.17 (≈ 0.518 µg/mL) | 0.3 (≈ 0.133 µg/mL) | – | – | – | Oc1c(Br)cc(Br)c2ccc(CNc3cccc(Cl)c3)nc12 [HQ-4] | 62.5 (≈ 27.7 µg/mL) | 9.38 (≈ 4.15 µg/mL) | – | – | – | – | MIC [2, 8]: 0.15 to 0.3 µM (≈ 0.0664 to 0.133 µg/mL); MIC ([3]; 18 h, Table 2, ATCC 700221): 0.39 to 0.78 µM (≈ 0.173 to 0.345 µg/mL); MIC ([3]; Table 2, ATCC 700221): 0.78 µM (≈ 0.345 µg/mL); MRSA-2 MBEC ([4]; Table 3, biofilm eradication, CBD, second value of MBC/MBEC cell): equipotent biofilm eradication activities; MBEC:MBC ratio ([5]; MRSE 35984, CBD): ~1; MBC [6, 12]: 1.5 µM (≈ 0.664 µg/mL)
– | – | – | – | – | O=C(O)CN(CCN(CC(=O)O)CC(=O)O)CC(=O)O [EDTA, ethylenediaminetetraacetic acid, reference compound] | – | – | 2000 (≈ 584 µg/mL) | 1000 (≈ 292 µg/mL) | – | – | % Haemolysis at 200 μM (human red blood cells; Table 3, human red blood cells): 3.0%
– | – | 0.78 (≈ 0.258 µg/mL) | 0.39 (≈ 0.129 µg/mL) | 0.78 (≈ 0.258 µg/mL) | CCc1ccc2c(Br)cc(Br)c(O)c2n1 [A-HQ-1] | – | – | 93.8 (≈ 31 µg/mL) | 31.3 (≈ 10.4 µg/mL) | 1.5 (≈ 0.497 µg/mL) | ≤1 | –
– | – | – | – | – | NC(=O)c1cnccn1 [Pyrazinamide, reference compound] | – | – | > 2000 | – | – | ≤1 | –
– | – | – | – | – | CCCCNCc1ccc2c(Br)cc(Br)c(O)c2n1 [HQ-2] | – | – | – | – | – | – | MIC ([1]; Staphylococcus, MRSA): 3.13 µM (≈ 1.21 µg/mL); MIC ([1]; Staphylococcus, MRSA, read-out: MRSA-2 MIC): 6.25 µM (≈ 2.43 µg/mL); MIC ([2]; Staphylococcus epidermidis): 3.13 µM (≈ 1.21 µg/mL); MIC [3]: 3.13 µM (≈ 1.21 µg/mL); MIC (MRSA-2; MRSA, read-out: MIC w/Cu^2+): 3.13 µM; MIC (MRSA-2; MRSA, read-out: MIC w/Fe^2+): 3.13 µM; MIC (MRSA-2; MRSA, read-out: MIC w/Zn^2+): 1.17 µM; MBC ([4]; read-out: MRSA-2 Clinical Isolate MBC): 46.9 µM (≈ 18.2 µg/mL); MBC ([6]; read-out: VRE ATCC 700221 MBC): 15.6 µM (≈ 6.05 µg/mL)
– | – | > 100 | 4.69 (≈ 2.35 µg/mL) | 9.38 (≈ 4.71 µg/mL) | Oc1c(I)cc(I)c2ccc(CNc3ccccc3)nc12 [RA-HQ-22] | – | – | > 1000 | 250 (≈ 126 µg/mL) | 31.3 (≈ 15.7 µg/mL) | 3.0 | –
– | – | 1.56 (≈ 0.685 µg/mL) | 1.17 (≈ 0.514 µg/mL) | 0.39 (≈ 0.171 µg/mL) | CCCc1ccc2c(I)cc(I)c(O)c2n1 [A-HQ-4] | – | – | 188 (≈ 82.5 µg/mL) | 125 (≈ 54.9 µg/mL) | 7.8 (≈ 3.42 µg/mL) | ≤1 | MIC ([1]; Staphylococcus, MRSA, read-out: MIC): 1.56 µM (≈ 0.685 µg/mL); Fold Δ (MIC w/Cu^2+) (MRSA-2; [17]): +8 fold; Fold Δ (MIC w/Fe^2+) (MRSA-2; [17]): +64 fold; Fold Δ (MIC w/Zn^2+) (MRSA-2; [17]): −8 fold; MIC (MRSA-2; MRSA-2, 200 μM ammonium iron (II) sulfate hexahydrate, read-out: MIC w/Fe^2+): > 100 µM; MIC (MRSA-2; MRSA-2, 200 μM copper (II) sulfate, read-out: MIC w/Cu^2+): 12.5 µM; MIC (MRSA-2; MRSA-2, 200 μM zinc (II) chloride, read-out: MIC w/Zn^2+): 0.2 µM

Structure (SMILES) | MIC [1, 7] [µM] | MIC [2, 9] [µM] | MIC [1, 14] [µM] | MIC [2, 15] [µM] | MIC ([3]; Table 3) [µM] | MBC [4, 10] [µM] | MBC [5, 11] [µM] | MBC [4, 13] [µM] | MBC ([5]; Table 3, read-out: MRSE MBC) [µM] | MBC [6, 16] [µM] | % Haemolysis at 200 μM (human red blood cells; human, 1 h, pH 7.2) [%] | other results
N#CC(C#N)=NNc1cccc(Cl)c1 [CCCP, carbonyl cyanide m-chlorophenyl hydrazone, reference compound] | 3.13 (≈ 0.64 µg/mL) | 6.25 (≈ 1.28 µg/mL) | – | – | – | 31.3 (≈ 6.4 µg/mL) | 31.3 (≈ 6.4 µg/mL) | 31.3 (≈ 6.4 µg/mL) | 31.3 (≈ 6.4 µg/mL) | – | – | MIC ([1]; Table 3, at least three independent experiments, read-out: MRSA-2 MIC): 3.13 µM (≈ 0.64 µg/mL); MIC ([2]; Table 3): 6.25 µM (≈ 1.28 µg/mL); % Haemolysis at 200 μM (human red blood cells; Table 2, human red blood cells, 1 hour at 37° C.): 3.5%; % Haemolysis at 200 μM (human red blood cells; Table 3, human red blood cells): 3.5%
